Columns and labels:
IP receptor = biological target: T1, IP receptor (Homo sapiens, UniProt P43119); assay: Iloprost-induced cAMP production assay in HEL cells (Assay 2); format: cell-based; conditions: read-out: Activity grade assay 2
T1 construct: HEL cells were collected with centrifugation and washed with cAMP assay buffer; host or cells: HEL 92.1.7 human erythroleukemia cells
Method: [Iloprost-Induced cAMP Production Assay in HEL Cells] (Assay 2)
HEL cells were collected with centrifugation and washed with cAMP assay buffer (CAB: Hank's balanced salt solution, 17 mM Hepes, 0.1% bovine serum albumin, 1 mM IBMX, 0.4% DMSO, and 1 mM L-ascorbic acid sodium salt (pH 7.4)). Cells were suspended at the density of 2.5×10^5 cells/ml in CAB, and twenty thousand cells in 80 μl aliquot of cell suspension were put in a well of 96 well plate (Falcon). Then, 10 μl of compound solution diluted with 1% DMSO in CAB or buffer alone was added. The plate was incubated at 37° C. for 30 min. Then, another 10 μl containing 100 nM iloprost in CAB or buffer alone was added and further incubated at 37° C. for 30 min. cAMP content in the well was measured by a cAMP ELISA kit (Applied Biosystems, USA).
Results of Iloprost-induced cAMP production assay (Assay2) are shown in Examples and tables of the Examples below. For practical reasons, the compounds are grouped in three classes of activity as follows: A(=or<)0.1μM<B(=or<)1μM<C

T1 sequence (P43119 whole entry): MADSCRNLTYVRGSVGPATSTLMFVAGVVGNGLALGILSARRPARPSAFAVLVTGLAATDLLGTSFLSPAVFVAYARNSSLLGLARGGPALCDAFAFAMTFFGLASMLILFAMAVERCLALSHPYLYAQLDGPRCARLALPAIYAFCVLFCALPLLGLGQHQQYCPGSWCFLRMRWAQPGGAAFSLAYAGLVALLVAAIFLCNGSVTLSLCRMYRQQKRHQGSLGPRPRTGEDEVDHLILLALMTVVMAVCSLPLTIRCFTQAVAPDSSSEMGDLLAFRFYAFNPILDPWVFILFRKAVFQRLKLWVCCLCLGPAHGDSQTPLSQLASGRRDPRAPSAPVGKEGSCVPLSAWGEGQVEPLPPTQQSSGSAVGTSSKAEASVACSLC

SMILES | IC50 (IP receptor) | melting point
O=C(NC(Cc1ccncc1)C(=O)O)c1ccc2cc(OCc3ccccc3)ccc2c1 (stereo not shown) [Example 1-69] | 100 to 1000 nM | 260 to 262 °C (dec.)
O=C(NC(Cc1ccccc1)C(=O)O)c1ccc2cc(OCc3cccc4ccccc34)ccc2c1 (stereo not shown) [Example 1-70] | 100 to 1000 nM | 220 °C
O=C(NC(Cc1ccc(I)cc1)C(=O)O)c1ccc2cc(OCc3ccccc3)ccc2c1 (stereo not shown) [Example 1-71] | < 100 nM | 219 to 221 °C
O=C(NC(CCc1ccccc1)C(=O)O)c1ccc2cc(OCc3ccccc3)ccc2c1 (stereo not shown) [Example 1-72] | > 1000 nM | 223 to 225 °C
O=C(NC(Cc1ccc(-c2ccccc2)cc1)C(=O)O)c1ccc2cc(OCc3ccccc3)ccc2c1 (stereo not shown) [Example 1-73] | 100 to 1000 nM | 250 to 252 °C
O=C(NC(Cc1ccccc1)C(=O)O)c1ccc2cc(OCC3CCCCC3)ccc2c1 (stereo not shown) [Example 1-74] | 100 to 1000 nM | 220 °C
O=C(NC(Cc1ccc(-c2ccncc2)cc1)C(=O)O)c1ccc2cc(OCc3ccccc3)ccc2c1 (stereo not shown) [Example 1-75] | 100 to 1000 nM | 247 to 249 °C (dec.)
O=C(NC(Cc1ccc(N2CCOCC2)cc1)C(=O)O)c1ccc2cc(OCc3ccccc3)ccc2c1 (stereo not shown) [Example 1-76] | > 1000 nM | 216 to 218 °C (dec.)
O=C(NC(Cc1ccccc1)C(=O)O)c1ccc2cc(OCCc3cccnc3)ccc2c1 (stereo not shown) [Example 1-77] | 100 to 1000 nM | 113 °C
O=C(NC(Cc1ccccc1)C(=O)O)c1ccc2cc(OCCc3ccccn3)ccc2c1 (stereo not shown) [Example 1-78] | 100 to 1000 nM | 143 °C
O=C(NC(Cc1c[nH]c2ccc(F)cc12)C(=O)O)c1ccc2cc(OCc3ccccc3)ccc2c1 (stereo not shown) [Example 1-79] | < 100 nM | 236 to 238 °C (dec.)
O=C(NC(Cc1c[nH]c2ncccc12)C(=O)O)c1ccc2cc(OCc3ccccc3)ccc2c1 (stereo not shown) [Example 1-80] | < 100 nM | 275 to 277 °C (dec.)
O=C(NC(Cc1ccccc1)C(=O)O)c1ccc2cc(OCCN3CCCC3)ccc2c1 (stereo not shown) [Example 1-81] | > 1000 nM | 234 °C
O=C(NC(Cc1ccccc1)C(=O)O)c1ccc2cc(OCCN3CCCCC3)ccc2c1 (stereo not shown) [Example 1-82] | > 1000 nM | 215 °C
O=C(NC(Cc1ccccc1)C(=O)O)c1ccc2cc(OCCc3ccncc3)ccc2c1 (stereo not shown) [Example 1-83] | < 100 nM | 190 °C
CC(Cc1ccccc1)(NC(=O)c1ccc2cc(OCc3ccccc3)ccc2c1)C(=O)O (stereo not shown) [Example 1-84] | 100 to 1000 nM | 184 °C
O=C(NC(Cc1ccccc1)C(=O)O)c1ccc2cc(OCc3cccc(O)c3)ccc2c1 (stereo not shown) [Example 1-85] | < 100 nM | 157 °C
O=C(NC(Cc1ccccc1)C(=O)O)c1ccc2cc(OCCn3ccnc3)ccc2c1 (stereo not shown) [Example 1-86] | 100 to 1000 nM | 172 °C (dec.)
O=C(NC(Cc1ccccc1)C(=O)O)c1ccc2cc(OCc3ccc[n+]([O-])c3)ccc2c1 (stereo not shown) [Example 1-87] | > 1000 nM | 252 °C (dec.)
O=C(NC(Cc1ccccc1)C(=O)O)c1ccc2cc(OCc3cccc(OCC4CCCCC4)c3)ccc2c1 (stereo not shown) [Example 1-88] | > 1000 nM | 180 °C
O=C(NC(Cc1ccccc1)C(=O)O)c1ccc2cc(OCc3cccc(OCC4CC4)c3)ccc2c1 (stereo not shown) [Example 1-89] | 100 to 1000 nM | 179 °C
CCCCOc1cccc(COc2ccc3cc(C(=O)NC(Cc4ccccc4)C(=O)O)ccc3c2)c1 (stereo not shown) [Example 1-90] | 100 to 1000 nM | 172 °C
CCOc1cccc(COc2ccc3cc(C(=O)NC(Cc4ccccc4)C(=O)O)ccc3c2)c1 (stereo not shown) [Example 1-91] | < 100 nM | 145 °C
CCCOc1cccc(COc2ccc3cc(C(=O)NC(Cc4ccccc4)C(=O)O)ccc3c2)c1 (stereo not shown) [Example 1-92] | 100 to 1000 nM | 173 °C
CC(C)COc1cccc(COc2ccc3cc(C(=O)NC(Cc4ccccc4)C(=O)O)ccc3c2)c1 (stereo not shown) [Example 1-93] | 100 to 1000 nM | 140 °C
CC(COc1ccc2cc(C(=O)NC(Cc3ccccc3)C(=O)O)ccc2c1)c1ccccc1 (stereo not shown) [Example 1-94] | < 100 nM | 160 °C
O=C(N[C@H](Cc1ccccc1)C(=O)O)c1ccc2cc(OCc3ccccc3)ccc2c1 [Example 2-1, N-[6-(benzyloxy)-2-naphthoyl]-D-phenylalanine] | < 100 nM | 179 °C
O=C(N[C@@H](Cc1ccccc1)C(=O)O)c1ccc2cc(Oc3ccccc3)ccc2c1 [Example 3-1, N-(6-phenoxy-2-naphthoyl)phenylalanine] | > 1000 nM | 179 to 180 °C
O=C(N[C@@H](Cc1ccccc1)C(=O)O)c1ccc2cc(NCc3ccccc3)ccc2c1 [Example 4-1, N-[6-(benzylamino)-2-naphthoyl]phenylalanine] | 100 to 1000 nM | 172 °C

From patent publication US20060166989A1, “2-naphthamide derivatives” (Bayer Healthcare AG, priority 2002, published 2006)
